Experimental data reported in PMC4914440 (Pharmacological research, 2016).
Values joined by “and” are separate entries in the source; they are usually repeats but may differ in a detail not shown here. Equal values may be shown once.

Assays:
h5-HT5A = h5-HT5A (Homo sapiens, UniProt P47898); assay: Radioligand displacement by a fixed drug concentration, [3H]LSD; details: 10 μM efavirenz
untransfected HeLa cells = assay: cAMP-Glo assay, control cells; type: cell-based, human; details: efavirenz 30 μM, clozapine 30 μM, 5-HT 1 μM
DAT = details: cited from earlier work
5-HT2A receptor [1] = biological target: T1, 5-HT2A receptor (Homo sapiens, UniProt P28223); assay: Competition radioligand binding, concentration-response
T1 sequence (P28223 whole entry): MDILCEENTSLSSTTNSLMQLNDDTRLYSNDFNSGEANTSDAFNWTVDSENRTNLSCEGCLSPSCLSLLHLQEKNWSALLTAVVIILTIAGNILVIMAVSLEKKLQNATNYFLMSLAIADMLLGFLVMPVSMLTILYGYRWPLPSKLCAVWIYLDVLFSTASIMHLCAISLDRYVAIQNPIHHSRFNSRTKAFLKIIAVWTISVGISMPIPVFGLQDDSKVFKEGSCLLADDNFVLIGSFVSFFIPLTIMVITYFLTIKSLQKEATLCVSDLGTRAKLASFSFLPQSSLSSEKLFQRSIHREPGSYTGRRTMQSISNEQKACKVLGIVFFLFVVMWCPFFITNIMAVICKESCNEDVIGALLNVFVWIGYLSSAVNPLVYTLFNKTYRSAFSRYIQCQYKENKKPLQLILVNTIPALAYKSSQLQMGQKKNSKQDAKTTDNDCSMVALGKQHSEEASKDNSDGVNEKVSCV

[2] = cited from earlier work
HIV-1 = details: cited from earlier work
[3] = Estimated brain concentration, authors' calculation
m5-HT3 (5-HT3A receptor) = m5-HT3 (5-HT3A receptor) (Mus musculus, UniProt P23979); assay: Radioligand displacement by a fixed drug concentration, [3H]BRL-43694; details: 10 μM efavirenz
m5-HT3 (5-HT3A receptor), sequence (P23979 24-489): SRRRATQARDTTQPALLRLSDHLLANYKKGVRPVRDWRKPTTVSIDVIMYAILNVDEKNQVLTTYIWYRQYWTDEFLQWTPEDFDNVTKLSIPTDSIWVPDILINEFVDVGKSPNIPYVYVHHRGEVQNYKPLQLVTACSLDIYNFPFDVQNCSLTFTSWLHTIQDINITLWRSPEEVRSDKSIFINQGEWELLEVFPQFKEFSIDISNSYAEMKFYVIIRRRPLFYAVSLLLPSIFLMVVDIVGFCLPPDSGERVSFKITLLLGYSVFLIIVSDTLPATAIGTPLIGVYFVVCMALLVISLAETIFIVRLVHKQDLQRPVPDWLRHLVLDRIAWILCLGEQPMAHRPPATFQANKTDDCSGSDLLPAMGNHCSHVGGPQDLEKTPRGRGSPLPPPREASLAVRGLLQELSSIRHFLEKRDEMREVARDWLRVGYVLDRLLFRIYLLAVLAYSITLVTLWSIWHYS

[4] = system: serotonin transporter (SERT); details: 10 μM; cited from earlier work
h5-HT7 = h5-HT7 (Homo sapiens, UniProt P34969); assay: Radioligand displacement by a fixed drug concentration, [3H]LSD; details: 10 μM efavirenz
h5-HT7, sequence (P34969 whole entry): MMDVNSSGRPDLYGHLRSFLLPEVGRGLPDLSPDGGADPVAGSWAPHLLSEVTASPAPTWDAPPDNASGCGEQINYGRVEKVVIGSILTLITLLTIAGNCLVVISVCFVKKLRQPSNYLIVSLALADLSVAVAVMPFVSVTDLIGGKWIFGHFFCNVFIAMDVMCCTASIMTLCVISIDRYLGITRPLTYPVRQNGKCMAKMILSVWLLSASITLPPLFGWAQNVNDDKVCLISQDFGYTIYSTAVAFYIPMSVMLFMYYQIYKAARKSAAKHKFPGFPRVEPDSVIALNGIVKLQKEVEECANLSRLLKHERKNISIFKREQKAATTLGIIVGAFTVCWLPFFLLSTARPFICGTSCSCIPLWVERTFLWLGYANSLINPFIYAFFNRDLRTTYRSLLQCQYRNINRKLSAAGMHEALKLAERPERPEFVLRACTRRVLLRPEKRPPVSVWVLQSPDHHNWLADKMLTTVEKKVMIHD

5-HT6 receptor [5] = biological target: T2, 5-HT6 receptor (Rattus norvegicus, UniProt P31388); assay: Competition radioligand binding, concentration-response
T2 sequence (P31388 whole entry): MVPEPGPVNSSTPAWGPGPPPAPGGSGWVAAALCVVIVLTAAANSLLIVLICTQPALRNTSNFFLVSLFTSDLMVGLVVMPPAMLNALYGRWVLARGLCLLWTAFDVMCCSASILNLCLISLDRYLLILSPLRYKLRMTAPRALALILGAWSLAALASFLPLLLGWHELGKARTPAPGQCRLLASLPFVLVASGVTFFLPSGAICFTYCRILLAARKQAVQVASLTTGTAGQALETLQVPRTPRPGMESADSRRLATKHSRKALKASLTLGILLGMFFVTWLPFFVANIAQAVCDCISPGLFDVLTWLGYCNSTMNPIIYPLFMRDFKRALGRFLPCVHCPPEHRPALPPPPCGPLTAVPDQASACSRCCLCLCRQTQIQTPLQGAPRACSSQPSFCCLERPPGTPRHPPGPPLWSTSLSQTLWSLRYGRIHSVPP

untransfected CHO cells = assay: Intracellular calcium assay, control cells; type: cell-based; details: data not shown
[6] = cited from earlier work; remark: listed apart in the source
gp5-HT4 = gp5-HT4 (Cavia porcellus, UniProt O70528); details: 10 μM efavirenz
gp5-HT4, sequence (O70528 whole entry): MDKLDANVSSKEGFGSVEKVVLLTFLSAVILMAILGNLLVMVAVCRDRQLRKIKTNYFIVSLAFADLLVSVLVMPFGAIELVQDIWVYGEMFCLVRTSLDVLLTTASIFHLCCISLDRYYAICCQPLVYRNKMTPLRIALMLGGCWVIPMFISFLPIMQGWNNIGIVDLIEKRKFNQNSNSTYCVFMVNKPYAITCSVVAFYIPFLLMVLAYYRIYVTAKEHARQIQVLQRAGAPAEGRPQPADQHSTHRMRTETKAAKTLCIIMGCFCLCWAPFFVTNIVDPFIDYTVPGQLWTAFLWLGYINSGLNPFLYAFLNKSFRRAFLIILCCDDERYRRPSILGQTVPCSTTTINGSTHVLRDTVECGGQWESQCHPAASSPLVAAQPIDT

NMDA receptors = details: 10 μM; cited from earlier work
r5-HT6 = r5-HT6 (Rattus norvegicus, UniProt P31388); assay: Radioligand displacement by a fixed drug concentration, [3H]LSD; details: 10 μM efavirenz
r5-HT6, sequence (P31388 whole entry): as the sequence (P31388 whole entry) above

5-HT2A receptor [7] = biological target: T1, 5-HT2A receptor; assay: Prolonged; type: cell-based; details: 3 day exposure to 30 μM
[8] = cited from earlier work; remark: listed apart in the source
GABAA receptor = details: cited from earlier work
5-HT2A receptor [9] = biological target: T1, 5-HT2A receptor; assay: Intracellular calcium assay of Gq signaling, HEK293 cells; type: cell-based
[10] = system: endogenous β-adrenergic receptor; assay: cAMP-Glo assay, untransfected HeLa cells stimulated with; type: cell-based, human
5-HT6 receptor [11] = biological target: T2, 5-HT6 receptor; assay: cAMP-Glo assay of Gs signaling, HeLa cells; type: cell-based; details: 30 μM
dopamine receptors = details: 10 μM; cited from earlier work
MAO-A = MAO-A (Homo sapiens, UniProt P21397); assay: Inhibition of monoamine oxidase A activity, kynuramine substrate; type: biochemical; details: 10 μM
MAO-A, sequence (P21397 whole entry): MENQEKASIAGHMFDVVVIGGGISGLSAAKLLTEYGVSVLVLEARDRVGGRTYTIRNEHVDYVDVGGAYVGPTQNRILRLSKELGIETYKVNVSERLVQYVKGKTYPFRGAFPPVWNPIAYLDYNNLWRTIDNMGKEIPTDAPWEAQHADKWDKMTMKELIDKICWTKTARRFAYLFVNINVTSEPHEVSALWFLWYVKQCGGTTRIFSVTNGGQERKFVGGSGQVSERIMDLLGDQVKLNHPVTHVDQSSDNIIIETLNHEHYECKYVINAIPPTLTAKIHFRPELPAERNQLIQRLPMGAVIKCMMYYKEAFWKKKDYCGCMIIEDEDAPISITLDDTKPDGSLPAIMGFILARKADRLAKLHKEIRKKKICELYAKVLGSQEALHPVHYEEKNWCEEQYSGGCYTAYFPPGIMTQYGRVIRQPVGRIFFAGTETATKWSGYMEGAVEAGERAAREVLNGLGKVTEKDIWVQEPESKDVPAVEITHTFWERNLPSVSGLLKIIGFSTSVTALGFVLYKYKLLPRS

h5-HT1A = details: 10 μM efavirenz; cited from earlier work
[12] = within 1 hr of i.p. dose of 15 mg/kg; cited from earlier work
5-HT2C receptor [13] = biological target: T3, 5-HT2C receptor (Homo sapiens, UniProt P28335); assay: Competition radioligand binding, concentration-response
T3 sequence (P28335 33-458): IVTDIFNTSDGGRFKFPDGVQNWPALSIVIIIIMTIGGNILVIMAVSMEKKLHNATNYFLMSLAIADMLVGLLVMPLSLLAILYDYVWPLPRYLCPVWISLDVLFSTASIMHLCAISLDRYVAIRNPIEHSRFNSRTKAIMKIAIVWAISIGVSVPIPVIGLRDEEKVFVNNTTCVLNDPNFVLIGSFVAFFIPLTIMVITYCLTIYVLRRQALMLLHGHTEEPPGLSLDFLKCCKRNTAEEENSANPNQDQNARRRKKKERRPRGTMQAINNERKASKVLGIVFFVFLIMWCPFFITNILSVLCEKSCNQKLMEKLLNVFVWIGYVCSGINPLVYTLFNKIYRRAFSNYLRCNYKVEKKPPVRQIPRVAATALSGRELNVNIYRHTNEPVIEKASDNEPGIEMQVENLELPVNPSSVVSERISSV

h5-HT2B = h5-HT2B (Homo sapiens, UniProt P41595); assay: Radioligand displacement by a fixed drug concentration, [3H]LSD; details: 10 μM efavirenz
h5-HT2B, sequence (P41595 whole entry): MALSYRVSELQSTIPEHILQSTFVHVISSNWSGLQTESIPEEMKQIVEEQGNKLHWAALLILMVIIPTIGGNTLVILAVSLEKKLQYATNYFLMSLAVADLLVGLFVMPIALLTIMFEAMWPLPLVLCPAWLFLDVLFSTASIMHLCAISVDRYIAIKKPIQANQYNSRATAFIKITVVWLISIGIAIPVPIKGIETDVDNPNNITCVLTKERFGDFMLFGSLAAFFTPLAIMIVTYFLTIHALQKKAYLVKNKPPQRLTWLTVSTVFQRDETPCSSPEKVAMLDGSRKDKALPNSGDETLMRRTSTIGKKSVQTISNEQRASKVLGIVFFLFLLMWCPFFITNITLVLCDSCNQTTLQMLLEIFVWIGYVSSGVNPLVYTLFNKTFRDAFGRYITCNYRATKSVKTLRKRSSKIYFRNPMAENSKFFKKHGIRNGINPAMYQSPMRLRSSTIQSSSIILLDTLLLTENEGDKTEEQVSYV

[14] = cited from earlier work; remark: listed apart in the source
5-HT2A receptor [15] = biological target: T1, 5-HT2A receptor; assay: Prolonged; type: cell-based; details: for antagonism of 100 nM 5-HT calcium response: 10 μM efavirenz
5-HT2C receptor [16] = biological target: T3, 5-HT2C receptor; details: serum free
M3 muscarinic receptor = M3 muscarinic receptor (Homo sapiens, UniProt P20309); assay: Intracellular calcium assay, untransfected HEK293 cells with endogenous receptor; type: cell-based
M3 muscarinic receptor, sequence (P20309 whole entry): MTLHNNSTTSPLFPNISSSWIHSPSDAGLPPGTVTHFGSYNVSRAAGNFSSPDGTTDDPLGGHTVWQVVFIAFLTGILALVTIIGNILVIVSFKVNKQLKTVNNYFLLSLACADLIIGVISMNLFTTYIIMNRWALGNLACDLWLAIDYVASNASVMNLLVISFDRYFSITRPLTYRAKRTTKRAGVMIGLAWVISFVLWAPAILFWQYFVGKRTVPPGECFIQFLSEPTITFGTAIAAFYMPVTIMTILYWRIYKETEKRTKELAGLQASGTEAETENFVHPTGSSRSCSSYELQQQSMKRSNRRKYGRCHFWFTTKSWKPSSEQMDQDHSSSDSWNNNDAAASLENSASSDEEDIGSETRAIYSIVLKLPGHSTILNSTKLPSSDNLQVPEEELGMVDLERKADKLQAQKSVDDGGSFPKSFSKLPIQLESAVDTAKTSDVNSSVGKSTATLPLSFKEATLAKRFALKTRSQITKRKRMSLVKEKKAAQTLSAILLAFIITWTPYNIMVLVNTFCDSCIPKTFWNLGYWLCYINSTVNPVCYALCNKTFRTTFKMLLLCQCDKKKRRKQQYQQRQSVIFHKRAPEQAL

h5-HT5A, sequence (P47898 whole entry): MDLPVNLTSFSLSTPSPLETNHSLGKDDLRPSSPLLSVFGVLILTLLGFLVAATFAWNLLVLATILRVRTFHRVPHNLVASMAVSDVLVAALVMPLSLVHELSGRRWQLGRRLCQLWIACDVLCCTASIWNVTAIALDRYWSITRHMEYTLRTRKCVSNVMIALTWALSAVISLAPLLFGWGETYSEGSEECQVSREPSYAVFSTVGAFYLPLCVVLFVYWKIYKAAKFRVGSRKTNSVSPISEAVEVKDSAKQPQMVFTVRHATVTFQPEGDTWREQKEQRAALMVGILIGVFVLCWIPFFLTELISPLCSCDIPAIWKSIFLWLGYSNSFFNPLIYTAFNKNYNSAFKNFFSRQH

SMILES: O=C1Nc2ccc(Cl)cc2[C@@](C#CC2CC2)(C(F)(F)F)O1 [efavirenz, (4S)-6-chloro-4-(2-cyclopropylethynyl)-4-(trifluoromethyl)-2,4-dihydro-1H-3,1-benzoxazin-2-one]
- interaction (radioligand displacement) (h5-HT5A): less pronounced or no detectable interaction
- change in cAMP levels (untransfected HeLa cells): no significant changes in cAMP levels
- transporter function (DAT): functioned as a DAT and SERT blocker
- Ki (5-HT2A receptor [1]; affinity (Ki), [3H]MSP competition): 4.4 µM and 4.37 µM
- pseudo Hill slope (5-HT2A receptor [1]; competition binding): −1.39 ± −0.18
- substitution in rats trained to discriminate LSD from saline [2]: partially substituted for LSD
- plasma levels needed to keep HIV-1 suppressed (HIV-1): 1 to 4 µg/mL
- plasma levels resulting in NPAE (HIV-1): greater than 2.74 μg/mL
- plasma levels resulting in virologic failure (HIV-1): < 1 μg/mL
- estimated concentration in brain tissue ([3]; 44 nM ÷ 0.002): ~22 µM
- corresponding brain concentrations ([3]; plasma >2.74 μg/mL, assuming rat brain accumulation 4.6): > 40 µM
- displacement of [3H]-granisetron binding (m5-HT3 (5-HT3A receptor)): did not significantly displace
- effect on serotonin reuptake [4]: blocks reuptake of serotonin
- interaction (radioligand displacement) (h5-HT7): less pronounced or no detectable interaction
- Ki (5-HT6 receptor [5]): 2.2 ± 0.27 µM
- pseudo Hill slope (5-HT6 receptor [5]; competition binding): −1.36 ± −0.14
- Gq-mediated response (untransfected CHO cells): No Gq-mediated response
- bound to plasma proteins [6]: approximately 99.8%
- interaction (radioligand displacement) (gp5-HT4): less pronounced or no detectable interaction
- interaction (NMDA receptors): did not have significant interactions
- displacement of specifically bound radioligand (r5-HT6): ≥ 75%
- decrease in receptor density (Bmax) (5-HT2A receptor [7]): 52%
- novel open field locomotor activity [8]: dose-dependently depressed novel open field locomotor activity
- effect on GABA-mediated chloride currents (GABAA receptor): potentiated GABA-mediated chloride currents
- inhibition of agonist responses (5-HT, TCB-2, α-Me-5HT) (5-HT2A receptor [9]; 30 μM antagonist): significant inhibition
- Schild plot slope (5-HT2A receptor [9]; (±)-DOI as agonist): 1.06 ± 0.054
- Schild plot slope (5-HT2A receptor [9]; LSD as agonist): 1.2 ± 0.16
- effect on (−)-epinephrine stimulated cAMP response [10]: failed to significantly modulate
- effect on 5-HT agonist effect (5-HT6 receptor [11]): completely overcame the agonist effect of 5-HT but also reduced activity to below basal levels
- effect on basal cAMP (5-HT6 receptor [11]): lowers the basal levels of cAMP
- interaction (dopamine receptors): did not have significant interactions
- decrease of MAO-A activity (MAO-A): 36 ± 1.7%
- interaction (radioligand displacement) (h5-HT1A): less pronounced or no detectable interaction
- brain levels relative to plasma levels [12]: exceed 4.6 times
- Ki (5-HT2C receptor [13]): 1.7 ± 0.28 µM
- pseudo Hill slope (5-HT2C receptor [13]; competition binding): −1.22 ± −0.18
- displacement of specifically bound radioligand (h5-HT2B): greater than 50%
- incidence of hallucinations ([14]; large clinical studies, 1008 patients): 1.2%
- frequency of hallucinations ([14]; three clinical studies, 114–197 patients each): 6–31%
- antagonism of 100 nM 5-HT calcium response (5-HT2A receptor [15]; cells pretreated 3 days with 30 μM 5-HT): 49%
- antagonism of 100 nM 5-HT calcium response (5-HT2A receptor [15]; cells pretreated 3 days with 30 μM efavirenz): 49%
- antagonism of 100 nM 5-HT calcium response (5-HT2A receptor [15]; cells pretreated 3 days with DMSO vehicle): 48%
- reduction of the 100 μM maximal 5-HT response (5-HT2A receptor [15]; 3 day exposure to 30 μM, vs 3 day vehicle): 81%
- concentration completely suppressing the 5-HT agonist effect (5-HT2C receptor [16]; 0.03 nM 5-HT (EC50)): ≥ 60 µM
- concentration inhibiting the 5-HT agonist effect (5-HT2C receptor [16]; 0.03 nM 5-HT (EC50)): ≥ 10 µM
- concentration with no significant effect on 5-HT responses (5-HT2C receptor [16]; 0.03 nM 5-HT (EC50)): up to 3 μM
- agonist activity (5-HT2C receptor [16]): did not have any agonist activity
- concentration partially suppressing ACh mediated activation (M3 muscarinic receptor; EC50 concentration of acetylcholine): ≥ 10 µM
- extent of block of ACh response (M3 muscarinic receptor; highest concentration that could be tested): unable to produce a complete block
- effect alone on intracellular Ca2+ levels (M3 muscarinic receptor; untransfected HEK293 cells): had no effect
